In patent US20120082647A1, “INTERFERON-BETA FOR USE AS MONOTHERAPY OR IN COMBINATION WITH OTHER CANCER THERAPIES” (priority 2010, published 2012):

Columns and labels:
[1] = system: MDA-MB-231 breast carcinoma cells; assay: MDA-MB-231 breast carcinoma tumor volume in SCID mice; format: in vivo; conditions: paclitaxel 25 mg/kg I.P. q4d x 3, pegylated interferon beta 1a 0.4 to 1.6 mg/kg SC BIW
Experimental: 8-10 week old SCID mice from Charles River Labs were inoculated subcutaneously with 5×10^6 MDA-MB-231 breast carcinoma cells with 50% matrigel in the flank region. When the average tumor volumes reached approximately 200 mm^3 the tumor-bearing mice were randomized to treatment groups. Pegylated IFN-1a was provided in 20 mM acetic acid/sodium acetate at a pH of 4.8 and 150 mM arginine/HCl (4.8A buffer). Paclitaxel was provided in a Cremophor Ethanol Saline mixture (CES buffer).

ERK phosphorylation = ERK phosphorylation in SK-MEL-1 tumors (western blot); format: in vivo, nude mice; conditions: SK-MEL-1 tumors removed 8 hours post last dose; FIG. 4
Experimental: Athymic nude mice were inoculated with 2×10^6 SK-MEL-1 human melanoma cells (1 injection in flank; 1 injection per mouse) and 100-200 cubic mm tumors were established. pegylated IFN β-1a was provided in 20 mM acetic acid/sodium acetate at a pH of 4.8 and 150 mM arginine/HCl containing 15 mg/mL human serum albumin (HSA). HSA was used as a control and administered at a concentration of 15 mg/mL. Mice (10 per group) were randomized and treated with either:
i. PEG400 (once a day (QD) for 14 days) and pegylated Interferon-beta-1a (10 μg once a week (QW) for 3 weeks); ii. PD325901 (15 mg/kg once a day (QD) for 14 days) and pegylated Interferon-beta-1a (10 μg once a week (QW) for 3 weeks); iii. PEG400 (once a day (QD) for 14 days) and (HSA) (QW for 3 weeks); iv. PD325901 (15 mg/kg once a day (QD) for 14 days) and HSA (QW for 3 weeks).
Tumors were measured every 3 days using calipers and volume was calculated for a prolate spheroid. The identity of the vehicle control for pegylated interferon-beta-1a vehicle (HSA) and pegylated Interferon-beta-1a was blinded. Tumors were removed 8 hours post last dose and frozen for ERK phosphorylation analysis.

[2] = system: SK-MEL-1 human melanoma cells; assay: SK-MEL-1 melanoma tumor volume in nude mice; format: in vivo; conditions: SK-MEL-1 tumor volume; PD325901 15 mg/kg QD 14 days, pegylated Interferon-beta-1a 10 μg QW 3 weeks
Experimental: Tumors were measured every 3 days using calipers and volume was calculated for a prolate spheroid, defined as:
where L equals the major diameter and W equals the minor diameter.

Row | Structure (SMILES) | inhibition of tumor growth, single agent versus vehicle controls [1] | ERK phosphorylation compared to vehicle and pegylated Interferon-beta-1a treated groups (ERK phosphorylation) | difference between estimates of least square means between treatment groups and vehicle control group [2]
1 | CC(=O)O[C@H]1C(=O)[C@@]2(C)[C@H]([C@H](OC(=O)c3ccccc3)[C@]3(O)C[C@H](OC(=O)[C@H](O)[C@@H](NC(=O)c4ccccc4)c4ccccc4)C(C)=C1C3(C)C)[C@]1(OC(C)=O)CO[C@@H]1C[C@@H]2O [paclitaxel] | greater inhibition of tumor growth compared to mice treated with vehicle controls |  | 
2 | O=C(NOC[C@H](O)CO)c1ccc(F)c(F)c1Nc1ccc(I)cc1F [PD325901, N-[(2R)-2,3-dihydroxypropoxy]-3,4-difluoro-2-[(2-fluoro-4-iodo-phenyl)amino]benzamide] |  | significant inhibition of ERK phosphorylation | −4.52
